Reference: PubChem BioAssay AID540264 (Southern Research Specialized Biocontainment Screening …, 2011)
Where “and” joins values, the source holds several entries; their conditions need not be identical. Equal entries are not always repeated. Calls of active or inactive are those of the source.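 The calls were made as follows: active = CPE inhibition of 50% or more; inactive = the rest.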

What was measured:
[1] = RSV cytopathic effect inhibitors, dose response, cell-based, RSV Long, luminescence, synthesized compounds, set 11 (AID 540264); conditions: HEp-2 RSV Long CPE inhibition, luminescence; at 200 µM (top of the series)
[2] = tested on: HEp-2 RSV Long CPE inhibition, luminescence; assay: as above

Structure (SMILES) | CPE inhibition [1] | IC50 [2]
COCCCNC(=O)c1ccc(Cn2c(=O)c3ccccc3n(Cc3ccccc3Br)c2=O)cc1 | 0.32% (inactive) | –
COCCCNC(=O)c1ccc(Cn2c(=O)c3ccccc3n(Cc3ccccc3F)c2=O)cc1 | 1.77% (inactive) | –
Cc1ccc(Cn2c(=O)n(Cc3ccc(C(=O)NC(C)(C)C)cc3)c(=O)c3ccccc32)cc1 | – | 1800 nM
Cc1ccc(Cn2c(=O)n(Cc3ccc(C(=O)NCCCOC(C)C)cc3)c(=O)c3ccccc32)cc1 | – | 1660 nM
COCCCNC(=O)c1ccc(Cn2c(=O)c3cc(Cl)ccc3n(Cc3ccc(C)cc3)c2=O)cc1 | 5.48% (inactive) | –
Cc1ccc(Cn2c(=O)n(Cc3ccc(C(=O)NCCCN(C)C)cc3)c(=O)c3ccccc32)cc1 | – | 9290 nM
CCOCCCNC(=O)c1ccc(Cn2c(=O)c3ccccc3n(Cc3ccc(C)cc3)c2=O)cc1 | – | 1720 nM
Cc1ccc(Cn2c(=O)n(Cc3ccc(C(=O)Nc4ccncc4)cc3)c(=O)c3ccccc32)cc1 | – | 6290 nM
COCCCNC(=O)c1ccc(Cn2c(=O)c3ccccc3n(Cc3ccc(F)cc3)c2=O)cc1 | – | 5000 nM
COCCCNC(=O)c1ccc(Cn2c(=O)c3ccccc3n(Cc3cccc(Br)c3)c2=O)cc1 | – | 2150 nM
Cc1ccc(C)c(NC(=O)[C@@H]2CCCN2S(=O)(=O)c2cccc3cccnc23)c1 | – | 1500 nM and 1700 nM
